Holding throughout (assay): MIC, serial dilutions in Müller-Hinton broth
Holding throughout (assay type): cell-based

One test concerns A. baumannii 1440. As for the experimental part: (§1) A comparative assessment of the spectrum of antibacterial action was carried out on archival and clinical strains of gram-positive and gram-negative microorganisms in accordance with the [Opredeleniye chuvstvitel'nosti mikroorganizmov k antibakterial'nym preparatam (Metodicheskiye ukazaniya MUK 4.2.1890-04). Utverzhdeny i vvedeny v deystviye Glavnym gosudarstvennym sanitarnym vrachom Rossiyskoy Federatsii G. G. Onishchenko 04.03.2004 g. Determination of the sensitivity of microorganisms to antibacterial drugs (Guidelines MUK 4.2.1890-04). Approved and put into effect by the Chief State Sanitary Doctor of the Russian Federation G. G. Onishchenko on 4 Mar. 2004].
(§2) The value of the minimum inhibitory concentration (MIC) was determined by the method of serial dilutions on Müller-Hinton broth using 96-well sterile plates. Two-fold dilutions of the test substances in a nutrient medium were prepared. The final concentrations were 1-128 ug/ml. The growth of cultures was assessed visually, comparing the growth of microorganisms in the presence of test compounds with the growth of culture without them. […] The first lowest concentration of the studied substance (from a series of consecutive dilutions), where bacterial growth is not visually determined, is considered to be the minimum inhibitory concentration (MIC). MIC was determined by the method of serial dilutions in broth with increment=2, so the differences of neighboring dilutions are not considered to be significant. In each experience there is a positive (broth with growing culture) and a negative (broth without growing culture) control.
(§3) To determine the MIC, 10 μl of culture medium was taken from those wells in which growth was not observed, and inoculation was performed on a dense Müller-Hinton broth. For the preparation of the inoculum, a pure, daily culture of gram-positive and gram-negative microorganisms grown on a dense nutrient medium was used. Nutrient medium is Müller-Hinton broth, which was prepared from dry media (Müller-Hinton broth, Acumedia, Baltimore), cultivation was carried out on agarized Müller-Hinton broth, including an additional 2% agar. The media were autoclaved at 121° C. for 15 minutes. In a sterile isotonic solution of sodium chloride, a suspension of microorganisms was prepared, adjusting the inoculum density to 0.5 according to the McFarland standard (1.5·10^8 CFU/ml). Then, the resulting inoculum was diluted to a concentration of 10^7 CFU/ml with Müller-Hinton broth. The inoculum was used within 15 minutes after preparation; the purity of the bacterial strains was monitored before each experiment.
(§4) 100 μl of Müller-Hinton broth was added to the wells of each plate; The tested substance was introduced into the first well at a concentration of 128 μg/ml in a volume of 100 μl and its concentration was adjusted to 0.5 μg/ml by consecutive two-fold dilution. Then, the prepared inoculum (100 μI) was added to each well, thereby diluting twice the concentration of the studied compounds. […] In addition, the purity of nutrient media and solvents was monitored. The plates were incubated in a thermostat at 37° C. for 24 hours. The growth of cultures was assessed visually, comparing the growth of microorganisms in the presence of test compounds with the growth of culture without them.
(§5) For the MIC was taken the minimum concentration of the studied compounds, providing complete suppression of the visible growth of the studied strains of microorganisms. The maximum value obtained in three independent experiments was taken as the MIC of the compound.

Another test has as its system E. faecium 25. How it is done: as §1, §2, §3, §4, §5
The test system of another test is E. faecium 27. How it is done:
as §1, §2, §3, §4, §5

Another test concerns E. faecium 3028. How it is done:
as §1, §2, §3, §4, §5

In a further test the test system is E. faecium 31. As for the experimental part: as §1, §2, §3, §4, §5
In a further test the test system is E. faecium 4402. How it is done: as §1, §2, §3, §4, §5
A further test deals with E.coli ATCC 25922. How it is done: as §1, §2, §3, §4, §5
A further test has as its system Kl. pneumoniae 1342 PR. How it is done: as §1, §2, §3, §4, §5
For a further test, the system named is Kl. pneumoniae 1766. As for the experimental part:
as §1, §2, §3, §4, §5

A further test relates to Kl. pneumoniae. As for the experimental part:
as §1, §2, §3, §4, §5

Another test deals with M. luteus. How it is done:
as §1, §2, §3, §4, §5

For another test, the system named is Ps. aeruginosa 1913 PR. As for the experimental part: as §1, §2, §3, §4, §5
Another test deals with Ps. aeruginosa 1945 PR. How it is done: as §1, §2, §3, §4, §5
Test [1] has as its system Ps. aeruginosa ATTC 27853. As for the experimental part: as §1, §2, §3, §4, §5
For the next test, the system named is S. aureus 1053 MRSA. As for the experimental part:
as §1, §2, §3, §4, §5

Another test has as its system S. aureus 1145 MRSA. As for the experimental part:
as §1, §2, §3, §4, §5

Another test concerns S. aureus 22. How it is done: as §1, §2, §3, §4, §5
A further test deals with S. aureus 983 MRSA. How it is done:
as §1, §2, §3, §4, §5

The next test relates to S. intermedius 1143 MRSA. How it is done: as §1, §2, §3, §4, §5
Another test relates to S. marcescens 1966 PR. As for the experimental part: as §1, §2, §3, §4, §5
A further test concerns Serratia spp. 15. How it is done: as §1, §2, §3, §4, §5
In a further test the test system is Stenotrophomonas spp. 9. How it is done: as §1, §2, §3, §4, §5

Where two headings read alike, the source gives them in different places.

Turning to `CCCCCCCCCCCC[N+](C)(C)Cc1cnc(C[N+](C)(C)CCCCCCCCCCCC)c2c1COC(CC)O2` (stereo not drawn) [Compound I, 5,8-(Bis(methylene (N, N-dimethyl-N-dodecylammonium))-2-ethyl-4H-[1,3]dioxino [4,5-c]pyridiniumdichloride], the minimal inhibitory concentration (MIC) came to 8 µg/mL in the test on A. baumannii 1440 (Acinetobacter baumannii, A. baumannii 1440, inoculum 10^7 CFU/ml, read-out: MIC); 0.03 µg/mL with E. faecium 25 (Enterococcus faecium, E. faecium 25, inoculum 10^7 CFU/ml, read-out: MIC); 0.03 µg/mL in the test with E. faecium 27 (Enterococcus faecium, E. faecium 27, inoculum 10^7 CFU/ml, read-out: MIC); 1 µg/mL in the test with E. faecium 3028 (Enterococcus faecium, E. faecium 3028, inoculum 10^7 CFU/ml, read-out: MIC); 0.03 µg/mL with E. faecium 31 (Enterococcus faecium, E. faecium 31, inoculum 10^7 CFU/ml, read-out: MIC); 0.06 µg/mL with E. faecium 4402 (Enterococcus faecium, E. faecium 4402, inoculum 10^7 CFU/ml, read-out: MIC). In addition, the MIC in the test with E.coli ATCC 25922 (Escherichia coli, ATCC25922, E.coli ATCC 25922, inoculum 10^7 CFU/ml, read-out: MIC) amounted to 2 µg/mL; with Kl. pneumoniae 1342 PR (Klebsiella pneumoniae, Kl. pneumoniae 1342 PR, inoculum 10^7 CFU/ml, read-out: MIC) it was 32 µg/mL; in the test on Kl. pneumoniae 1766 (Klebsiella pneumoniae, Kl. pneumoniae 1766, inoculum 10^7 CFU/ml, read-out: MIC), 16 µg/mL; with Kl. pneumoniae (Klebsiella pneumoniae, Kl. pneumoniae, inoculum 10^7 CFU/ml, read-out: MIC), 2 µg/mL; with M. luteus (Micrococcus luteus, M. luteus, inoculum 10^7 CFU/ml, read-out: MIC), 2 µg/mL; in the test with Ps. aeruginosa 1913 PR (Pseudomonas aeruginosa, Ps. aeruginosa 1913 PR, inoculum 10^7 CFU/ml, read-out: MIC) it was 64 µg/mL. The MIC in the test on Ps. aeruginosa 1945 PR (Pseudomonas aeruginosa, Ps. aeruginosa 1945 PR, inoculum 10^7 CFU/ml, read-out: MIC) came to 64 µg/mL; in [1] (Pseudomonas aeruginosa, ATTC27853, Ps. aeruginosa ATTC 27853, inoculum 10^7 CFU/ml, read-out: MIC), 4 µg/mL; with S. aureus 1053 MRSA (Staphylococcus aureus, S. aureus 1053 MRSA, inoculum 10^7 CFU/ml, read-out: MIC), 2 µg/mL; in the test with S. aureus 1145 MRSA (Staphylococcus aureus, S. aureus 1145 MRSA, inoculum 10^7 CFU/ml, read-out: MIC), 2 µg/mL; with S. aureus 22 (Staphylococcus aureus, S. aureus 22, inoculum 10^7 CFU/ml, read-out: MIC), 1 µg/mL; in the test with S. aureus 983 MRSA (Staphylococcus aureus, S. aureus 983 MRSA, inoculum 10^7 CFU/ml, read-out: MIC) it was 8 µg/mL. Further, the MIC in the test on S. intermedius 1143 MRSA (S. intermedius 1143 MRSA, inoculum 10^7 CFU/ml, read-out: MIC) was 4 µg/mL; in the test on S. marcescens 1966 PR (Serratia marcescens, S. marcescens 1966 PR, inoculum 10^7 CFU/ml, read-out: MIC), 32 µg/mL; in the test on Serratia spp. 15 (Serratia spp. 15, inoculum 10^7 CFU/ml, read-out: MIC) it was 16 µg/mL; with Stenotrophomonas spp. 9 (Stenotrophomonas spp. 9, inoculum 10^7 CFU/ml, read-out: MIC), 8 µg/mL.
With `CCCCCCCCCCCCCC(=O)NCCC[N+](C)(C)Cc1ccccc1.O.[Cl-]` [Miramistin, benzyldimethyl [3-(myristoylamino)propyl]-ammonium chloride monohydrate], the MIC is 64 µg/mL with A. baumannii 1440 (Acinetobacter baumannii, 1440); under 0.5 µg/mL against E. faecium 25 (Enterococcus faecium, 25); 32 µg/mL with E. faecium 27 (Enterococcus faecium, 27); 16 µg/mL in the test with E. faecium 3028 (Enterococcus faecium, 3028); 4 µg/mL in the test with E. faecium 31 (Enterococcus faecium, 31); 4 µg/mL against E. faecium 4402 (Enterococcus faecium, 4402). Moreover, the minimal inhibitory concentration (MIC) in the test on E.coli ATCC 25922 (Escherichia coli, ATCC25922) was 4 µg/mL; with Kl. pneumoniae 1342 PR (Klebsiella pneumoniae, 1342PR), 64 µg/mL; against Kl. pneumoniae 1766 (Klebsiella pneumoniae, 1766) it was 64 µg/mL; with Kl. pneumoniae (Klebsiella pneumoniae), over 64 µg/mL; against M. luteus (Micrococcus luteus) it was 2 µg/mL; against Ps. aeruginosa 1913 PR (Pseudomonas aeruginosa, 1913PR), over 64 µg/mL. The MIC in the test on Ps. aeruginosa 1945 PR (Pseudomonas aeruginosa, 1945PR) is over 64 µg/mL; in test [1] (Pseudomonas aeruginosa, ATTC27853) it was over 64 µg/mL; in the test on S. aureus 1053 MRSA (Staphylococcus aureus, MRSA), 4 µg/mL; against S. aureus 1145 MRSA (Staphylococcus aureus, MRSA), 8 µg/mL; with S. aureus 22 (Staphylococcus aureus, 22), 8 µg/mL; against S. aureus 983 MRSA (Staphylococcus aureus, MRSA) it was 4 µg/mL. Also, the MIC is 8 µg/mL with S. intermedius 1143 MRSA; 64 µg/mL with S. marcescens 1966 PR (Serratia marcescens, 1966PR); over 64 µg/mL in the test with Serratia spp. 15 (Serratia, SPP.15); 64 µg/mL with Stenotrophomonas spp. 9 (Stenotrophomonas, SPP.9).
Turning to “alkyldimethyl(phenylmethyl) ammonium chloride [Benzalconium chloride]”, the minimal inhibitory concentration (MIC) with A. baumannii 1440 (A. baumannii 1440, inoculum 10^7 CFU/ml) was 32 µg/mL; against E. faecium 25 (E. faecium 25, inoculum 10^7 CFU/ml), under 0.5 µg/mL; in the test on E. faecium 27 (E. faecium 27, inoculum 10^7 CFU/ml), 0.5 µg/mL; with E. faecium 3028 (E. faecium 3028, inoculum 10^7 CFU/ml) it was 4 µg/mL; against E. faecium 31 (E. faecium 31, inoculum 10^7 CFU/ml), under 0.5 µg/mL; against E. faecium 4402 (E. faecium 4402, inoculum 10^7 CFU/ml), 1 µg/mL. The MIC was 1 µg/mL against E.coli ATCC 25922 (E.coli ATCC 25922, inoculum 10^7 CFU/ml); 32 µg/mL against Kl. pneumoniae 1342 PR (Kl. pneumoniae 1342 PR, inoculum 10^7 CFU/ml); 16 µg/mL against Kl. pneumoniae 1766 (Kl. pneumoniae 1766, inoculum 10^7 CFU/ml); over 64 µg/mL in the test on Kl. pneumoniae (Kl. pneumoniae, inoculum 10^7 CFU/ml); 1 µg/mL against M. luteus (M. luteus, inoculum 10^7 CFU/ml); over 64 µg/mL in the test with Ps. aeruginosa 1913 PR (Ps. aeruginosa 1913 PR, inoculum 10^7 CFU/ml). The MIC is over 64 µg/mL with Ps. aeruginosa 1945 PR (Ps. aeruginosa 1945 PR, inoculum 10^7 CFU/ml); over 64 µg/mL in test [1] (Ps. aeruginosa ATTC 27853, inoculum 10^7 CFU/ml); 4 µg/mL against S. aureus 1053 MRSA (S. aureus 1053 MRSA, inoculum 10^7 CFU/ml); 2 µg/mL with S. aureus 1145 MRSA (S. aureus 1145 MRSA, inoculum 10^7 CFU/ml); under 0.5 µg/mL against S. aureus 22 (S. aureus 22, inoculum 10^7 CFU/ml); 4 µg/mL with S. aureus 983 MRSA (S. aureus 983 MRSA, inoculum 10^7 CFU/ml). For the same molecule, the MIC in the test on S. intermedius 1143 MRSA (S. intermedius 1143 MRSA, inoculum 10^7 CFU/ml) came out at 4 µg/mL; in the test with S. marcescens 1966 PR (S. marcescens 1966 PR, inoculum 10^7 CFU/ml) it was 64 µg/mL; in the test on Serratia spp. 15 (Serratia spp. 15, inoculum 10^7 CFU/ml) it was 2 µg/mL; with Stenotrophomonas spp. 9 (Stenotrophomonas spp. 9, inoculum 10^7 CFU/ml), 4 µg/mL.

The MIC is the lowest concentration found to suppress growth.
